Legend:
Assay in all cases: Kinase profiling
Type in all cases: biochemical
CDK17/p35NCK = biological target: T1, CDK17/p35NCK (Homo sapiens, UniProt Q00537)
T1 construct: purchased ProQinase (Freiburg, Germany)
Method: (§1) The analysis was performed by ProQinase (Freiburg, Germany).

HIPK1 = biological target: T2, HIPK1 (Homo sapiens, UniProt Q86Z02)
T2 construct: purchased ProQinase (Freiburg, Germany)
Method: as §1

STK25 = biological target: T3, STK25 (Homo sapiens, UniProt O00506)
T3 construct: purchased ProQinase (Freiburg, Germany)
Method: as §1

MYLK2 = biological target: T4, MYLK2 (Homo sapiens, UniProt Q9H1R3)
T4 construct: purchased ProQinase (Freiburg, Germany)
T4 sequence (Q9H1R3 whole entry): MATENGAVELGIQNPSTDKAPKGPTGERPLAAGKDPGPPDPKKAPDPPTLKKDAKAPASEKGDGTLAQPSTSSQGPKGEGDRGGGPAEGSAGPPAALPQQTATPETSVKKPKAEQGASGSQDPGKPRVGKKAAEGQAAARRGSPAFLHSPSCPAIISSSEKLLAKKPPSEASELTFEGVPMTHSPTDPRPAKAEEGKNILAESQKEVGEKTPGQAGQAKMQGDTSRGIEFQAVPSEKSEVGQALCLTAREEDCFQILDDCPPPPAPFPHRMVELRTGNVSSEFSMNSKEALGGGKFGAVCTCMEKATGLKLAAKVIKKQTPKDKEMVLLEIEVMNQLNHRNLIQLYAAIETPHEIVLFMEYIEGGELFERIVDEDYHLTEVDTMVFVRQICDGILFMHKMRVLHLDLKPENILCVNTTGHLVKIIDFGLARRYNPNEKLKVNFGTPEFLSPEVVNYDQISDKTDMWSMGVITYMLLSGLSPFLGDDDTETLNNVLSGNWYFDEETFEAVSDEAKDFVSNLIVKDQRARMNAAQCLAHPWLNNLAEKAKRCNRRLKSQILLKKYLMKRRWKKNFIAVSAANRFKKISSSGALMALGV
Method: as §1

VEGFR1 = biological target: T5, VEGFR1 (Homo sapiens, UniProt P17948)
T5 construct: purchased ProQinase (Freiburg, Germany)
Method: as §1

PAK2 = biological target: T6, PAK2 (Homo sapiens, UniProt Q13177)
T6 construct: purchased ProQinase (Freiburg, Germany)
T6 sequence (Q13177 whole entry): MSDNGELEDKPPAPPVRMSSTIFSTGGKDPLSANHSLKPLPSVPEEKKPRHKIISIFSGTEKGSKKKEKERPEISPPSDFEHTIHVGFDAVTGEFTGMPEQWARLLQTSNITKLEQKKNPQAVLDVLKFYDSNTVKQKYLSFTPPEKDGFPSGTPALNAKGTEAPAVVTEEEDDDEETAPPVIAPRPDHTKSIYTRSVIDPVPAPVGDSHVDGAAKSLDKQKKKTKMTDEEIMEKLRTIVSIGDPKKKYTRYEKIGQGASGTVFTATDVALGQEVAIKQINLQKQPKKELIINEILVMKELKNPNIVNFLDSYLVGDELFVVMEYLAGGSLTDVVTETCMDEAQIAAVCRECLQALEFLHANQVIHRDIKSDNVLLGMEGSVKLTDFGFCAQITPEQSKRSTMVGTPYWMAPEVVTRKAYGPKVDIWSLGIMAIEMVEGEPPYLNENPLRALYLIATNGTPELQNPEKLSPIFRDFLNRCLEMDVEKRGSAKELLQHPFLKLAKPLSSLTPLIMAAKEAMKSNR
Method: as §1

TTBK1 = biological target: T7, TTBK1 (Homo sapiens, UniProt Q5TCY1)
T7 construct: purchased ProQinase (Freiburg, Germany)
Method: as §1

IRAK1 = biological target: T8, IRAK1 (Homo sapiens, UniProt P51617)
T8 construct: purchased ProQinase (Freiburg, Germany)
Method: as §1

PKCepsilon = biological target: T9, PKCepsilon (Homo sapiens, UniProt Q02156)
T9 construct: purchased ProQinase (Freiburg, Germany)
T9 sequence (Q02156 1-737): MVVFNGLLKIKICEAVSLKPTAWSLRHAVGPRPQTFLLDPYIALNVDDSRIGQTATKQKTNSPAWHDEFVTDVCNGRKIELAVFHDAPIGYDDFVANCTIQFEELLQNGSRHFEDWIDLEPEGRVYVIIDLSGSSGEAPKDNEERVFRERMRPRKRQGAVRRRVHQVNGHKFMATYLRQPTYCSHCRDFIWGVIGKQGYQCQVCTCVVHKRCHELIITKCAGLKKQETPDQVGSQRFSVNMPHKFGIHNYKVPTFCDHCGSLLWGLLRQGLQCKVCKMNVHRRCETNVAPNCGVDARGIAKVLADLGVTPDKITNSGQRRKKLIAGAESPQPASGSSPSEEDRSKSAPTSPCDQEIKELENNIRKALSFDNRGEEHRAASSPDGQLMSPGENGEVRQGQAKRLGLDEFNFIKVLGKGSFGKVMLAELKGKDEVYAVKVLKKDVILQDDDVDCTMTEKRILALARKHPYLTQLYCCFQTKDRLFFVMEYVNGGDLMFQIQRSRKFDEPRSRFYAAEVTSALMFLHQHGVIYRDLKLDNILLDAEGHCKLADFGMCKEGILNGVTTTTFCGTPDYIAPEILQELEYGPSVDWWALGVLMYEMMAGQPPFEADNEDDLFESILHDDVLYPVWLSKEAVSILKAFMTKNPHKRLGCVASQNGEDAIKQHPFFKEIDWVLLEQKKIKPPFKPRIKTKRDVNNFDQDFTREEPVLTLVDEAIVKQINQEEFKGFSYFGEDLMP
Method: as §1

TYRO3 = biological target: T10, TYRO3 (Homo sapiens, UniProt Q06418)
T10 construct: purchased ProQinase (Freiburg, Germany)
T10 sequence (Q06418 41-890): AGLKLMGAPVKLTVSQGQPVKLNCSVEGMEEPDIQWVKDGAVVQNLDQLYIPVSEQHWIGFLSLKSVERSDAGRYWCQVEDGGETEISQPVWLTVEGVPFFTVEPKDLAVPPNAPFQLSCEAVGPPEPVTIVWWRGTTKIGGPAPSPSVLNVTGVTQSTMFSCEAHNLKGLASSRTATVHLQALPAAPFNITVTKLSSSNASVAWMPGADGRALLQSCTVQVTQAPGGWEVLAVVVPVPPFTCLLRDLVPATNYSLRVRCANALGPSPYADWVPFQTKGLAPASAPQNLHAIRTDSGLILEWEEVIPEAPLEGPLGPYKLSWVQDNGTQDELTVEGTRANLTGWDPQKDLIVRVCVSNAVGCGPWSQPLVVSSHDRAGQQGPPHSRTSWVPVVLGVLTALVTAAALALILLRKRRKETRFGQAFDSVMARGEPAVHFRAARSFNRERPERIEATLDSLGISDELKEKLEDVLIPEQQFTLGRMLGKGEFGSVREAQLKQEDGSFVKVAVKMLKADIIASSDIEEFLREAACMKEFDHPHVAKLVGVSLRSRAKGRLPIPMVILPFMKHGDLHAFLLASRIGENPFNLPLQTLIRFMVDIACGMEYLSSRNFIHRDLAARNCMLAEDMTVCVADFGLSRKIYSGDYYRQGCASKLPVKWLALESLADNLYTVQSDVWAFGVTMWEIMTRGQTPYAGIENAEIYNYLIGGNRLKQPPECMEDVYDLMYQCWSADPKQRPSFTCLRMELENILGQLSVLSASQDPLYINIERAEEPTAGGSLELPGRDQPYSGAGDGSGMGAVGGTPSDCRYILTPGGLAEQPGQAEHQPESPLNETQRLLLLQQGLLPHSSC
Method: as §1

CDC42BPA = biological target: T11, CDC42BPA (Homo sapiens, UniProt Q5VT25)
T11 construct: purchased ProQinase (Freiburg, Germany)
T11 sequence (Q5VT25 whole entry): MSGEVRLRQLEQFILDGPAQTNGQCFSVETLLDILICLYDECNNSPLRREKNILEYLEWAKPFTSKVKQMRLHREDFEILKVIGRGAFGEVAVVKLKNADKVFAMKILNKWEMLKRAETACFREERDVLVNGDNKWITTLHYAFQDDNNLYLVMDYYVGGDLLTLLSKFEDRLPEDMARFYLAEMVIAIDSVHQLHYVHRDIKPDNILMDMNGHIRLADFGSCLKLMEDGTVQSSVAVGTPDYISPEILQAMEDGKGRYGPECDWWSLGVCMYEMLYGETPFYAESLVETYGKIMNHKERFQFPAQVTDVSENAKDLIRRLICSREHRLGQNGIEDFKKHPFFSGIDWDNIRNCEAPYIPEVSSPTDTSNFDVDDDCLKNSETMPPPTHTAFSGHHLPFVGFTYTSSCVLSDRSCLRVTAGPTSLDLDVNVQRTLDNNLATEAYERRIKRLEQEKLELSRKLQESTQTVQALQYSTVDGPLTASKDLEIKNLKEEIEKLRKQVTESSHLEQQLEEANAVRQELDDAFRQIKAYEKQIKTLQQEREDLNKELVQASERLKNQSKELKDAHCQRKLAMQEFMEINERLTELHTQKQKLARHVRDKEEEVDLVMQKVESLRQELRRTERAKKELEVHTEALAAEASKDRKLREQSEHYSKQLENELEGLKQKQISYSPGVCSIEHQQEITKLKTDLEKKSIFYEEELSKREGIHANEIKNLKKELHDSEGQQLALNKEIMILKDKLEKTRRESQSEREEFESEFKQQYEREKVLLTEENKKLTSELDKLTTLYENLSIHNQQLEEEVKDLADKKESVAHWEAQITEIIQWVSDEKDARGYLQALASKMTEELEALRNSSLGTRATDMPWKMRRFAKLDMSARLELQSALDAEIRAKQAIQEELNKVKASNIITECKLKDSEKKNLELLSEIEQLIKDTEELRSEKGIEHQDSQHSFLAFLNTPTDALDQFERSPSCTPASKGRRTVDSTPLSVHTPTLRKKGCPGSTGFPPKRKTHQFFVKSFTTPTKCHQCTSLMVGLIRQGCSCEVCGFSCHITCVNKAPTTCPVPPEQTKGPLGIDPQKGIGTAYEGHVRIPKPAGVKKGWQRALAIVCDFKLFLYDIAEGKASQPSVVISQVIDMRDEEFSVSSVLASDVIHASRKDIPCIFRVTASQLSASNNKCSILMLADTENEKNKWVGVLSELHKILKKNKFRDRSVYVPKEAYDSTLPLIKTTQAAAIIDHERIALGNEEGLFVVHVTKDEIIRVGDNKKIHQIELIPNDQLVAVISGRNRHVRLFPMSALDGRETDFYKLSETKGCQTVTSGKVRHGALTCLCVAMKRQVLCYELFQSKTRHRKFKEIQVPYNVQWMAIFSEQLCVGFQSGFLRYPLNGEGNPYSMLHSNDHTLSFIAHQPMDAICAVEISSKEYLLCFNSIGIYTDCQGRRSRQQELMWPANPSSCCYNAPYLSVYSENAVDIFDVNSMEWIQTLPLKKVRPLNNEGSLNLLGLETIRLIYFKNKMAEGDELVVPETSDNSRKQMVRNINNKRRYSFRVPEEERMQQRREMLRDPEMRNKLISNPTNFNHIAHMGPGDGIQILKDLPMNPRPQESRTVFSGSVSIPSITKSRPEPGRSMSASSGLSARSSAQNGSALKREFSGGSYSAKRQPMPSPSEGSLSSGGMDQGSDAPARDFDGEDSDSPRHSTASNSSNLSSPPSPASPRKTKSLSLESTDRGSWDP
Method: as §1

TRKB = biological target: T12, TRKB (Homo sapiens, UniProt Q16620)
T12 construct: purchased ProQinase (Freiburg, Germany)
T12 sequence (Q16620 32-822): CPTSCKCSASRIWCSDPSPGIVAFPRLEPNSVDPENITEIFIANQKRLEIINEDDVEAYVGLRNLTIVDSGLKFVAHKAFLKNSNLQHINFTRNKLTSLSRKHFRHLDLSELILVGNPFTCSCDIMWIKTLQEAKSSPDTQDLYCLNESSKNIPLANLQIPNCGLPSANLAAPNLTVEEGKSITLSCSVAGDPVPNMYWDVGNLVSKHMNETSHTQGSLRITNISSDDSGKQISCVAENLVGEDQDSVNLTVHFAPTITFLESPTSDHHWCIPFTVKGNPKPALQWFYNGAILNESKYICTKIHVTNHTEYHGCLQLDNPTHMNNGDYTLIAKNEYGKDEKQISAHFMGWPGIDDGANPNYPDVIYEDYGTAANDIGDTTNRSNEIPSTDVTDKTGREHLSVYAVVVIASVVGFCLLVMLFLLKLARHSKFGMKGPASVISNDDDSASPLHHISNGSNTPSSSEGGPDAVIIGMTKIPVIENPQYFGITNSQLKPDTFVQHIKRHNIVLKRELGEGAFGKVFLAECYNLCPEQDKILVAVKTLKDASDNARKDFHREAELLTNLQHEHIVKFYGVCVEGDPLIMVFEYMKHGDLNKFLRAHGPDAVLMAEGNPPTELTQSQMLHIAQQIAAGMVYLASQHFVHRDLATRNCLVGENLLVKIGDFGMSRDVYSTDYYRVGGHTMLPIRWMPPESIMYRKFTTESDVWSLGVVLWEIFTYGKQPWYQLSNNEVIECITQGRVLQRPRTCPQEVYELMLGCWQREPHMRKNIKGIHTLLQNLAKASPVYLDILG
Method: as §1

SIK2 = biological target: T13, SIK2 (Homo sapiens, UniProt Q9H0K1)
T13 construct: purchased ProQinase (Freiburg, Germany)
Method: as §1

NEK4 = biological target: T14, NEK4 (Homo sapiens, UniProt P51957)
T14 construct: purchased ProQinase (Freiburg, Germany)
T14 sequence (P51957 whole entry): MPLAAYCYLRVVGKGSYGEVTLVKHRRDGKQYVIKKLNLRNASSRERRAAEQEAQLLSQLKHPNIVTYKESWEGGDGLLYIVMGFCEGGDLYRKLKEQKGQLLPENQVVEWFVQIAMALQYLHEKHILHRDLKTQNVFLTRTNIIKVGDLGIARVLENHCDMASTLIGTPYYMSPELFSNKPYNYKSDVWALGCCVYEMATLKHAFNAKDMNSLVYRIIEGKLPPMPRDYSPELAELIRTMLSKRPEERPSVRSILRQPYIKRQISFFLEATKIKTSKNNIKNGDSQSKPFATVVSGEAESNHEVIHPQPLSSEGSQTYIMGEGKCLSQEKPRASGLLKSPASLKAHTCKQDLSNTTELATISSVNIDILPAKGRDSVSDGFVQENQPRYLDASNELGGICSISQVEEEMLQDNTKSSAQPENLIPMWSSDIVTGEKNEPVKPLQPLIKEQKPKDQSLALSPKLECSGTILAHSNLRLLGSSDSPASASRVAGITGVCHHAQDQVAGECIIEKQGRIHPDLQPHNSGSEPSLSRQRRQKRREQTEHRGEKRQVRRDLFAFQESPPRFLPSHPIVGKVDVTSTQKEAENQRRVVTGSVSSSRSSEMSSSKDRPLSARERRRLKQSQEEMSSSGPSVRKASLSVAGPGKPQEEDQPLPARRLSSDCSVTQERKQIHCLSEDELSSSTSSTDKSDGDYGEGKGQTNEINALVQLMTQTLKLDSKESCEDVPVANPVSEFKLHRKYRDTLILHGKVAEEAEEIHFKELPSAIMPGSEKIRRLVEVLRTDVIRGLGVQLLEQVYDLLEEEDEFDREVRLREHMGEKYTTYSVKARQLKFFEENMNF
Method: as §1

MST4 = biological target: T15, MST4 (Homo sapiens, UniProt Q9P289)
T15 construct: purchased ProQinase (Freiburg, Germany)
T15 sequence (Q9P289 whole entry): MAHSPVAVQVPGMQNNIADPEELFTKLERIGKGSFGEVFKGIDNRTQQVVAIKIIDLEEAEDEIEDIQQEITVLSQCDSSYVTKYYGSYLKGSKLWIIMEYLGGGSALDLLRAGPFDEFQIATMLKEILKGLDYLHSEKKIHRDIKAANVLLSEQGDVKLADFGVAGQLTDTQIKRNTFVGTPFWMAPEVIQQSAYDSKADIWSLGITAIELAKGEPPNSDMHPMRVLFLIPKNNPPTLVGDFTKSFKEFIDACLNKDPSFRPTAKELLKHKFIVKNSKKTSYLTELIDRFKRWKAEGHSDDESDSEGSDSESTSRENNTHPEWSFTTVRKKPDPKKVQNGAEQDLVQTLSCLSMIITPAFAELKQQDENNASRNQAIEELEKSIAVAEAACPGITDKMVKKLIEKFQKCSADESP
Method: as §1

O=C(Cc1ccccc1)Nc1ccc(F)c(Nc2ccc3c(c2)CCCCC3=O)c1 [Compound 100]
Residual activity (CDK17/p35NCK; 1.0E-05 M): 84 % of control | Residual activity (CDK17/p35NCK; 1.0E-06 M): 102 % of control | Residual activity (HIPK1; 1.0E-05 M): 91 % of control | Residual activity (HIPK1; 1.0E-06 M): 100 % of control | Residual activity (STK25; 1.0E-05 M): 89 % of control | Residual activity (STK25; 1.0E-06 M): 100 % of control | Residual activity (MYLK2; 1.0E-05 M): 82 % of control | Residual activity (MYLK2; 1.0E-06 M): 93 % of control | Residual activity (VEGFR1; 1.0E-05 M): 93 % of control | Residual activity (VEGFR1; 1.0E-06 M): 100 % of control | Residual activity (PAK2; 1.0E-05 M): 68 % of control | Residual activity (PAK2; 1.0E-06 M): 101 % of control | Residual activity (TTBK1; 1.0E-05 M): 126 % of control | Residual activity (TTBK1; 1.0E-06 M): 108 % of control | Residual activity (IRAK1; 1.0E-05 M): 106 % of control | Residual activity (IRAK1; 1.0E-06 M): 107 % of control | Residual activity (PKCepsilon; 1.0E-05 M): 107 % of control | Residual activity (PKCepsilon; 1.0E-06 M): 107 % of control | Residual activity (TYRO3; 1.0E-05 M): 77 % of control | Residual activity (TYRO3; 1.0E-06 M): 96 % of control | Residual activity (CDC42BPA; 1.0E-05 M): 110 % of control | Residual activity (CDC42BPA; 1.0E-06 M): 114 % of control | Residual activity (TRKB; 1.0E-05 M): 74 % of control | Residual activity (TRKB; 1.0E-06 M): 105 % of control | Residual activity (SIK2; 1.0E-05 M): 81 % of control | Residual activity (SIK2; 1.0E-06 M): 89 % of control | Residual activity (NEK4; 1.0E-05 M): 81 % of control | Residual activity (NEK4; 1.0E-06 M): 102 % of control | Residual activity (MST4; 1.0E-05 M): 82 % of control | Residual activity (MST4; 1.0E-06 M): 90 % of control

O=C(Nc1ccc(F)c(Nc2ccc3c(c2)CCCCC3=O)c1)c1cccc(F)c1 [Compound 109]
Residual activity (CDK17/p35NCK; 1.0E-05 M): 92 % of control | Residual activity (CDK17/p35NCK; 1.0E-06 M): 109 % of control | Residual activity (HIPK1; 1.0E-05 M): 93 % of control | Residual activity (HIPK1; 1.0E-06 M): 90 % of control | Residual activity (STK25; 1.0E-05 M): 91 % of control | Residual activity (STK25; 1.0E-06 M): 90 % of control | Residual activity (MYLK2; 1.0E-05 M): 79 % of control | Residual activity (MYLK2; 1.0E-06 M): 85 % of control | Residual activity (VEGFR1; 1.0E-05 M): 93 % of control | Residual activity (VEGFR1; 1.0E-06 M): 101 % of control | Residual activity (PAK2; 1.0E-05 M): 69 % of control | Residual activity (PAK2; 1.0E-06 M): 91 % of control | Residual activity (TTBK1; 1.0E-05 M): 115 % of control | Residual activity (TTBK1; 1.0E-06 M): 101 % of control | Residual activity (IRAK1; 1.0E-05 M): 104 % of control | Residual activity (IRAK1; 1.0E-06 M): 100 % of control | Residual activity (PKCepsilon; 1.0E-05 M): 103 % of control | Residual activity (PKCepsilon; 1.0E-06 M): 104 % of control | Residual activity (TYRO3; 1.0E-05 M): 92 % of control | Residual activity (TYRO3; 1.0E-06 M): 104 % of control | Residual activity (CDC42BPA; 1.0E-05 M): 116 % of control | Residual activity (CDC42BPA; 1.0E-06 M): 103 % of control | Residual activity (TRKB; 1.0E-05 M): 92 % of control | Residual activity (TRKB; 1.0E-06 M): 101 % of control | Residual activity (SIK2; 1.0E-05 M): 82 % of control | Residual activity (SIK2; 1.0E-06 M): 93 % of control | Residual activity (NEK4; 1.0E-05 M): 94 % of control | Residual activity (NEK4; 1.0E-06 M): 98 % of control | Residual activity (MST4; 1.0E-05 M): 80 % of control | Residual activity (MST4; 1.0E-06 M): 92 % of control
